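A five-concentration, 48-hour dose response in 96-well plates underlies each endpoint, interpolated linearly between surrounding concentrations. The concentration for 50% growth inhibition is given as GI50. At the TGI there is no net growth.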
How the values were obtained:
Assay in all cases: growth of human tumour cells (NCI), 48 h
[1] = tested on: HCC-2998 colon
[2] = tested on: M14 melanoma
[3] = tested on: SR leukemia
[4] = tested on: SNB-19 CNS
[5] = tested on: NCI-H460 lung
[6] = tested on: SF-539 CNS
[7] = tested on: SK-OV-3 ovarian
[8] = tested on: ACHN renal
[9] = tested on: HOP-62 NSCLC
[10] = tested on: T-47D breast

COC(=O)/C(=N/O)C(C(=O)OC)C(=O)C(=O)Nc1c(Cl)cc(C)cc1S(=O)(=O)O (stereo not given)
TGI [1]: > 100 µM | TGI [2]: > 100 µM | TGI [3]: 42.8 µM | TGI [4]: > 100 µM | TGI [5]: > 100 µM | TGI [6]: > 100 µM | TGI [7]: > 100 µM | TGI [8]: > 100 µM | TGI [9]: > 100 µM

[N-]=[N+]=Nc1c(Br)c(=O)[nH]c(=O)n1COCCO
TGI [1]: > 100 µM | TGI [2]: > 100 µM | TGI [3]: > 100 µM | TGI [4]: > 100 µM | TGI [5]: > 100 µM | TGI [6]: > 100 µM | TGI [8]: > 100 µM | TGI [9]: > 100 µM

C=C(C)[C@@H]1CC[C@]2(C)[C@H](CC=C3[C@@H]4[C@H](C)[C@@H](C)CC[C@]4(CO)CC[C@]32C)[C@@]1(C)CCCN
GI50 [10]: 1.51 µM | TGI [10]: 5.15 µM | GI50 [1]: 0.873 µM | TGI [1]: 1.62 µM | GI50 [2]: 0.846 µM | TGI [2]: 1.76 µM | GI50 [4]: 2.11 µM | TGI [4]: 8.11 µM | GI50 [5]: 0.914 µM | TGI [5]: 1.71 µM | GI50 [6]: 0.945 µM | TGI [6]: 1.73 µM | GI50 [7]: 4.42 µM | TGI [7]: 12 µM | GI50 [8]: 1.42 µM | TGI [8]: 3.4 µM | GI50 [9]: 1.08 µM | TGI [9]: 2.36 µM

CCCCN(CCCC)C(=O)C(=O)CC(=O)/C=C/c1ccccc1
TGI [1]: > 100 µM | TGI [2]: > 100 µM | TGI [3]: > 100 µM | TGI [4]: > 100 µM | TGI [5]: > 100 µM | TGI [6]: > 100 µM | TGI [7]: > 100 µM | TGI [8]: > 100 µM | TGI [9]: > 100 µM

C[C@H]1CCC/C=C/[C@@H]2C[C@H](O)C[C@H]2[C@H](O)[C@@H](SC2OC(CO)C(O)C(O)C2O)CC(=O)O1 (stereo not given in full)
GI50 [10]: > 100 µM | TGI [10]: > 100 µM | GI50 [1]: > 100 µM | TGI [1]: > 100 µM | GI50 [2]: 61.3 µM | TGI [2]: > 100 µM | GI50 [4]: > 100 µM | TGI [4]: > 100 µM | GI50 [6]: 31.9 µM | TGI [6]: > 100 µM | GI50 [7]: > 100 µM | TGI [7]: > 100 µM | GI50 [8]: > 100 µM | TGI [8]: > 100 µM | GI50 [9]: 98.9 µM | TGI [9]: > 100 µM

COc1cc2c3c(c1OC)Oc1ccc(cc1)CC1c4c(cc(OC)c(OC)c4Oc4ccc(cc4)CC3N(C)CC2)CCN1C (stereo not given)
TGI [1]: 28 µM | TGI [2]: 33.2 µM | TGI [3]: 7.24 µM | TGI [4]: > 100 µM | TGI [5]: 37.1 µM | TGI [6]: 28 µM | TGI [7]: 84.1 µM | TGI [8]: > 100 µM | TGI [9]: 61.4 µM

Cc1cc(Cl)ccc1NC(=O)CCCC(=O)C(C(=O)c1ccccc1)c1ccccc1 (stereo not given)
TGI [1]: > 100 µM | TGI [2]: > 100 µM | TGI [5]: > 100 µM | TGI [7]: > 100 µM | TGI [8]: > 100 µM | TGI [9]: > 100 µM

CC1=NN(C(=O)c2cc(Cl)cc([N+](=O)[O-])c2)C(=O)C1N=Nc1ccccc1C(=O)O (stereo not given)
TGI [1]: > 100 µM | TGI [3]: > 100 µM | TGI [4]: > 100 µM | TGI [5]: > 100 µM | TGI [6]: > 100 µM | TGI [7]: > 100 µM | TGI [8]: > 100 µM

Cc1ccc(/C=C2\CN(Cc3cn(CCNc4ccnc5cc(Cl)ccc45)nn3)C/C(=C\c3ccc(C)cc3)C2=O)cc1
GI50 [10]: 2.5 µM | TGI [10]: 6.53 µM | GI50 [1]: 1.92 µM | TGI [1]: 3.44 µM | GI50 [2]: 2.2 µM | TGI [2]: 4.62 µM | GI50 [4]: 1.82 µM | TGI [4]: 3.43 µM | GI50 [5]: 1.54 µM | TGI [5]: 3.38 µM | GI50 [6]: 1.79 µM | TGI [6]: 3.26 µM | GI50 [7]: 1.9 µM | TGI [7]: 3.57 µM | GI50 [8]: 1.78 µM | TGI [8]: 3.25 µM | GI50 [9]: 1.96 µM | TGI [9]: 3.47 µM

Reference: PubChem BioAssay (NCI)
